These results are taken from patent US20260347380A1, “MODULATORS OF CD1 PROTEIN BINDING TO T CELL RECEPTORS” (The Brigham and Women's Hospital, Inc., priority 2022, published 2026).

One assay addresses CD1a (Homo sapiens, UniProt P06126). Nature of the assay: structure of CD1a-lipid complexes (FIG. 3, FIG. 4; co-crystallization). The conditions noted are these: for binding mode to CD1a and effect on approach of T cell receptors: sphingomyelins, FIG. 3. An excerpt: Sulfatide sits similarly within CD1a as compared to other lipids, but the sulfatide headgroup alters the protein surface of CD1a and protrudes to the outer surface of CD1a where it can block T cell receptors.
Sulfatides (compounds S1-S10) have the same kinds of CD1a binding lipid tails as the synthetic sphingomyelins, but carry a differing headgroup comprised of sulfate and carbohydrate rather than phosphocholine. […] However, the head group of sulfatide has two proposed mechanisms for blocking TCR contact. […] However, the sulfatide moiety also disrupts a triad of residues on the outer surface of CD1a, which changes the intrinsic conformation of CD1a at the site at which the TCR can bind. These structural data predict that sulfatides could be particularly broad and efficacious blockers of T cell response.

The test system of another assay is CD1a-T cell receptor. As to conditions: CD1a tetramer binding in vitro, J. Exp. Med. 2021, cited from earlier work.
The target of assay [1] is CD1a protein binding to RCS36 T cells (Homo sapiens, UniProt P06126). Description: CD1a tetramer staining of human CD1a autoreactive T cells (block of CD1a protein binding to T cells), flow cytometry, FIG. 5. The conditions noted are these: in vitro, human CD1a tetramers. The method, then: Exemplified sphingomyelins block CD1a protein binding to RCS36 T cells. Fluorescent human CD1a tetramers were treated with media (mock) or a sphingomyelin variant synthesized with the indicated fatty chain and tested for staining of human CD1a autoreactive T cells using flow cytometry. In all cases the fatty acyl group is conjugated to a C18:1 sphingosine unit. Thus, the C28:1 fatty acyl group and the C18:1 sphingosine group constitute C46:2 sphingomyelin (compound 10).
Generally, naturally occurring cellular sphingomyelins within mammalian cells occur as mixtures, and they are most commonly C34-C36 but can range up to C42 in length.
The degree of inhibition for CD1a protein binding to T cells expressing receptors that normally bind to CD1a was tested for the exemplified compounds 1-10 (see FIG. 5). Increased chain length contributed to blockade in all cases, and the non-natural positioning of the second unsaturation in the fatty acyl unit affected blockade. More blockade was seen when the unsaturation was generated in positions more distal to the head group located at positions 15-17 (Δ15, Δ17). […] Accordingly, additional SM blockers include those with increased length of alkyl chains beyond C46, where the unsaturation is moved to more […] positions in the fatty acyl chain and the number of unsaturations in the fatty acid chain is increased. […]
A general note: A flow cytometer gives signals particle by particle.

Assay [2] deals with ears of hCD1a and WT mice. Description: MC903-induced type 2 skin inflammation and itch in hCD1a mice (FIG. 11). It is filed as in vivo, mouse. The method, then: FIG. 11 show the impact of sphingomyelin application on MC903 type 2 inflammation and clinical itch. The ears of hCD1a and WT mice were topically treated with 1 nmol MC903/EtOH on days 0, 2 and 5. 20 μg/20 μl of SM 46:2, SM 42:2, SM 34:1 and vehicle were applied on the ear tissue on days-2, 0, 2 and 4. (A) Ear thickness, and (B) itching frequency were evaluated at endpoint of day 6. Each data plot represents an individual ear. Plots show mean±SEM. Statistics were calculated using one-way ANOVA with Tukey post-test. […], **** P<0.001, NS=nonsignificant.
In order to investigate whether SM had efficacy in a different inflammatory skin model, we utilized the MC903-induced model of type 2 cytokine inflammation which has features of dermatitis in humans and prominently causes itch, a major treatable skin symptom. The MC903-induced type 2 inflammation is amplified in the presence of hCD1a (Hardman et al Nat Comms 2022). […] These mice normally express CD1d and then were engineered to express CD1a. […] As well as having potential therapeutic applications in diseases involving type 2 inflammation in humans, the data support utility in treating broader diseases where pruritus and itch are symptoms. CD1a has not been previously linked with pruritus and so this represents a new area of biology and opens new areas for therapeutic application.

In the next assay the test system is skin cytokines. Description: skin cytokine levels of imiquimod-treated mice, cytometric bead array (FIG. 9B). It is filed as in vivo, mouse. The conditions noted are these: day 7. The method, then:
(§1) Sphingomyelin species C34:1, C42:2 or C46:2 (20 μg/20 μl ethanol), or vehicle alone (20 μl ethanol) were applied topically to WT or CD1a transgenic mouse ear skin at 48 hour intervals before and during application of Aldara on days 0-5 (20 mg 5% imiquimod cream).
Skin cytokine levels were assessed on day 7 of imiquimod-treated wild-type (WT) and CD1a transgenic mice (CD1a) treated topically with 20 μg sphingomyelin (SM34:1, SM42:2 or SM46:2) dissolved in ethanol, or ethanol alone control, as in FIG. 6, as measured by cytometric bead array. (N=2-3, 1-way-ANOVA with Dunnett's test, *, P<0.05; **, P<0.01; ***, P<0.001; ****, P<0.0001, mean±SD).

The test system of a further assay is plasma cytokines. Nature of the assay: plasma cytokine levels of imiquimod-treated mice, cytometric bead array (FIG. 10). It is filed as in vivo, mouse. Here is the method:
as §1
Plasma cytokine levels of the blood of imiquimod-treated wild-type (WT) and CD1a transgenic mice (CD1a) treated topically with 20 μg sphingomyelin (SM34:1, SM42:2 or SM46:2) dissolved in ethanol, or ethanol alone control, as in FIG. 6, as measured by cytometric bead array. (N=2-3, 1-way-ANOVA with Dunnett's test, *, P<0.05; **, P<0.01, mean±SD).

In assay [3] the test system is Skin T cell and draining lymph node T cell. Nature of the assay: flow cytometry of ear skin and draining lymph node of imiquimod-treated mice (FIG. 9A). It is filed as in vivo, mouse. Here is the method: as §1
Flow cytometry analysis of ear skin of imiquimod-treated wild-type (WT) and CD1a transgenic mice (CD1a) treated topically with 20 μg sphingomyelin (SM34:1, SM42:2 or SM46:2) dissolved in ethanol, or ethanol alone control, as in FIG. 6. Skin T cell and draining lymph node T cell, frequency was determined. And lymph node CD4 and CD8 T cells assessed for cell surface CD69 expression, which is an indication of T cell activation. Skin and draining LN eosinophil and neutrophil frequency was determined. (N=2-3, 1-way-ANOVA with Dunnett's test, *, P<0.05; **, P<0.01; ***, P<0.001; ****, P<0.0001, mean±SD).

Assay [4] deals with human CD1a transgenic mouse ear skin. Nature of the assay: imiquimod (Aldara)-induced psoriasiform skin inflammation in CD1a transgenic mice: ear swelling and skin images. It is filed as in vivo. As to conditions: for inflammatory lesions / visible skin inflammation: images day 7, topical 20 μg in ethanol. The method, then: as §1
Daily measurement of ear swelling induced by imiquimod treatment of wild-type (WT) and CD1a transgenic mice (CD1a) treated topically with 20 μg sphingomyelin (SM34:1, SM42:2 or SM46:2) dissolved in ethanol, or ethanol alone control, as in FIG. 6. (N=2-3, 2-way-ANOVA with Dunnett's test, *, P<0.05; ****, P<0.0001 indicates significance on comparison to “CD1a:EtOH” at day 7, mean±SD).
Representative images of imiquimod-treated wild-type (WT) and CD1a transgenic mouse ear skin (CD1a) treated topically with 20 μg sphingomyelin (SM34:1, SM42:2 or SM46:2) dissolved in ethanol, or ethanol alone control, as in FIG. 6, images taken on day 7. Steroid is mometasone cream.
CD1a is normally expressed on Langerhans cells in the epidermal layer of human skin. […] The lipids of this disclosure block CD1a binding to several T cell clones in vitro and also more broadly block the response of larger populations of polyclonal T cells that recognize CD1a in vivo, leading to decreased inflammation in the skin.
Synthetic long (C46:2 SMΔ17, compound 10), intermediate (C42:2Δ15 SM) and short chain (C34:1 SM) sphingomyelins were compared for inflammatory response. Unlike natural preparations that contain mixtures of short and long chain lipids, these experiments used pure synthetic lipids to titrate CD1a binding and inhibition of immune response. The functional requirements for the delivery vehicle are that it must: 1) dissolve amphipathic lipids, 2) be safe, immunologically unreactive, and non-toxic to skin and 3) create a lipid film that can subsequently penetrate to the epidermal layers, where CD1a is normally located in human skin and in the skin of CD1a transgenic mice. In this experiment, ethanol was chosen which is a chemically simple, safe and effective vehicle; however, other vehicles can also be used.
A widely used model of psoriasiform and dermatitic inflammation induced by Aldara cream, whose active ingredient is a toll-like receptor 7 agonist (imiquimod), was used in this example. Experiments were carried out in which lipid antagonists were applied to the skin of human CD1a transgenic mice in an ethanol carrier, which dried rapidly, leaving a lipid film on the skin. A significant reduction in ear swelling was observed, as a global measure of inflammation and psoriasiform and dermatitic disease when long chain sphingomyelins were applied before (data not shown) or simultaneously with Aldara treatment (FIGS. 7-11).

Setting [5] is: MC903, hCD1a mice, day 6, 20 μg topical.

Entries after “also recorded” stand apart in the source; their conditions may differ. Like-named read-outs stand apart in the source and are kept apart here.

CD1a, sequence (P06126 17-327): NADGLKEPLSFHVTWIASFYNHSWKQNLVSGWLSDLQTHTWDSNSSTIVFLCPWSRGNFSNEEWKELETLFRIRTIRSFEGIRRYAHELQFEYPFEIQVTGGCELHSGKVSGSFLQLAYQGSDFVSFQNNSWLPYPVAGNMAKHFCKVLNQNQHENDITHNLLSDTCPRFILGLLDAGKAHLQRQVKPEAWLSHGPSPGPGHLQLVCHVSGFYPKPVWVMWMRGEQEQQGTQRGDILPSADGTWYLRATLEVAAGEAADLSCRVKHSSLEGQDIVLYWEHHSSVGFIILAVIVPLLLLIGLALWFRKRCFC
CD1a, sequence (P61769 21-119 partner): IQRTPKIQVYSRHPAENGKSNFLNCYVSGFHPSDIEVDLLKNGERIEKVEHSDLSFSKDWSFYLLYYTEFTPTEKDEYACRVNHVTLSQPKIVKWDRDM
CD1a protein binding to RCS36 T cells, sequence (P06126 17-327): as the sequence (P06126 17-327) above
CD1a protein binding to RCS36 T cells, sequence (P61769 21-119 partner): as the sequence (P61769 21-119 partner) above

In the case of `CCCCCCCC/C=C\CCCCCCCC(=O)N[C@@H](COP(=O)([O-])OCC[N+](C)(C)C)[C@H](O)/C=C/CCCCCCCCCCCCC` [36:2 SM], on CD1a, the “binding mode to CD1a and effect on approach of T cell receptors” value is “binds by tucking its phosphocholine group largely inside CD1a so T cell receptors can approach CD1a and are not blocked”. In the assay on CD1a-T cell receptor, the “CD1a-T cell receptor binding” value is “did not block binding”.

Regarding `CCCCCCCC/C=C\CCCCCCCCCCCCCC(=O)N[C@@H](COP(=O)([O-])OCC[N+](C)(C)C)[C@H](O)/C=C/CCCCCCCCCCCCC` [42:2 SM], at CD1a, the “binding mode to CD1a and effect on approach of T cell receptors” value is recorded as “binds CD1a with its phosphocholine headgroup protruding, which blocks approach of T cell receptors”. The “CD1a-T cell receptor binding” value with CD1a-T cell receptor is given as “blocked CD1a-T cell receptor binding”; with CD1a-T cell receptor (listed as C42:2 compound), “blocked better than the singly unsaturated C42:1 compound”.

For `CCCCCCCCCC/C=C\CCCCCCCCCCCCCC(=O)N[C@@H](COP(=O)([O-])OCC[N+](C)(C)C)[C@H](O)/C=C/CCCCCCCCCCCCC` [Compound 8, 44:2 SM d18:1/26:1 (15Z)], the “inhibition of CD1a protein binding to T cells” value in assay [1] is recorded as “somewhat improved blocking of C44Δ15 SM as compared to C44Δ17 SM”.

With `CCCCCCCCCC/C=C\CCCCCCCCCCCCCCCC(=O)N[C@@H](COP(=O)([O-])OCC[N+](C)(C)C)[C@H](O)/C=C/CCCCCCCCCCCCC` [Compound 10, 46:2 SM d18:1/28:1 (17Z)], in assay [2] (MC903, day 6, 20 μg topical), the “ear thickness vs wild-type mice treated with MC903” value is “significantly reduced” and the “pruritus vs wild-type mice treated with MC903” value is recorded as “significantly reduced”. For the same compound, in assay [2] (setting [5]), the “ear thickness vs vehicle control” value is “significantly reduced” and the “itching/pruritus scores vs vehicle control” value was “significantly reduced”. Further, in the assay on skin cytokines, the “skin IFN-γ” value was “significant decreases”, the “skin IL1α” value was “significant decreases”, the “skin IL17α” value was “significant decreases” and the “skin IL-1β” value is listed as “significant decreases”. Moreover, in the assay on skin cytokines, the “skin IL-6” value is given as “significant decreases”, the “skin IL-17f” value was “significant decreases”, the “skin IL-22” value is recorded as “significant decreases” and the “skin TNFα” value is recorded as “significant decreases”. In addition, the “inhibition of CD1a protein binding to T cells” value in assay [1] is “strongest blockade; also recorded: strongly blocked CD1a binding to human T cell receptors in vitro”. In the assay with plasma cytokines, the “plasma IFNβ” value is reported as “significantly reduced”, the “plasma IL17α” value is “significantly reduced” and the “plasma IL-4” value was “significantly reduced”. In assay [3] (CD1a transgenic mice, topical in ethanol), the cellular inflammation result was “reduced skin swelling and cellular inflammation in vivo”. The “CD69 (surface marker of T cell activation)” value in assay [3] (lymph node CD4 and CD8 T cells) is recorded as “significant decreases”. For the same compound, in assay [4] (imiquimod, CD1a transgenic mice, topical 20 μg in ethanol), the “ear swelling / ear thickening” value is “reduced skin swelling; also recorded: most significantly inhibited”. Further, the “inflammatory lesions / visible skin inflammation” value in assay [4] (imiquimod) is recorded as “most significantly inhibited”. Also, the “inflammatory lesions / visible skin inflammation” value in assay [4] (imiquimod, listed as C46:2) is recorded as “significantly reduced skin inflammation”. Further, the “inflammatory lesions / visible skin inflammation” value in assay [4] (imiquimod, listed as C46:2 SM) is listed as “Reduced inflammatory lesions”. In assay [4] (in vivo mouse model, ethanol application), the protection from disease result is recorded as “protection from disease”.

With sulfatide, the “complex with CD1a” value at CD1a (sulfatide, co-crystallized, FIG. 4) is “CD1a was co-crystallized with sulfatide; also recorded: forms complex with CD1a”.
